Series [1] relates to Staphylococcus aureus. The series can be described thus: Antibiofilm activity against methicillin-resistant Staphylococcus aureus ATCC 43300 assessed as biofilm dispersal at 20 uM after 24 hrs by crystal violet staining-based microscopy. The series is classed as functional, organism-based.
Series [2] has as its system Staphylococcus aureus. The series can be described thus: Antimicrobial activity against methicillin-resistant Staphylococcus aureus ATCC BAA-44 assessed as inhibition of biofilm formation after 24 hrs by crystal violet staining-based microscopy. In kind it is functional, organism-based. To be noted: ATCC BAA-44, 24 h.
Series [3] deals with Staphylococcus aureus. The series can be described thus: Antimicrobial activity against methicillin-resistant Staphylococcus aureus ATCC BAA-44 after 16 hrs by broth microdilution method. In kind it is functional. To be noted: ATCC BAA-44, 16 h. (Broth dilution looks for growth in wells or tubes with falling amounts of substance.)
In series [4] the test system is Staphylococcus aureus. The series can be described thus: Antimicrobial activity against methicillin-resistant Staphylococcus aureus ATCC BAA-1556 after 16 hrs by broth microdilution method. The settings on record: ATCC BAA-1556, 16 h. The series is classed as functional.
Series [5] concerns Staphylococcus aureus. The series can be described thus: Antimicrobial activity against methicillin-resistant Staphylococcus aureus ATCC BAA-1753 after 16 hrs by broth microdilution method. The series is classed as functional. To be noted: ATCC BAA-1753, 16 h.
Series [6] concerns Staphylococcus aureus. The series can be described thus: Antimicrobial activity against methicillin-susceptible Staphylococcus aureus ATCC 29213 after 16 hrs by broth microdilution method. To be noted: ATCC 29213, 16 h. The series is classed as functional.
In series [7] the test system is Staphylococcus aureus. The series can be described thus: Antimicrobial activity against methicillin-resistant Staphylococcus aureus ATCC BAA-811 after 16 hrs by broth microdilution method. In kind it is functional. To be noted: ATCC BAA-811, 16 h.
Series [8] concerns Staphylococcus aureus. The series can be described thus: Antimicrobial activity against methicillin-resistant Staphylococcus aureus ATCC 43300 assessed as inhibition of biofilm formation after 24 hrs by crystal violet staining-based microscopy. In kind it is functional, organism-based. To be noted: ATCC 43300, 24 h.
Series [9] concerns Staphylococcus aureus. The series can be described thus: Antimicrobial activity against methicillin-resistant Staphylococcus aureus ATCC BAA-1685 after 16 hrs by broth microdilution method. To be noted: ATCC BAA-1685, 16 h. In kind it is functional.
Another series has as its system Pseudomonas aeruginosa. The series is described as follows: Antimicrobial activity against Pseudomonas aeruginosa PA14 after 16 hrs by broth microdilution method. To be noted: PA14, 16 h. In kind it is functional.
In series [10] the test system is Staphylococcus aureus. The series can be described thus: Antimicrobial activity against methicillin-resistant Staphylococcus aureus ATCC 33591 after 16 hrs by broth microdilution method. The series is classed as functional. The settings on record: ATCC 33591, 16 h.
The test system of series [11] is Staphylococcus aureus. The series can be described thus: Antimicrobial activity against methicillin-resistant Staphylococcus aureus ATCC 43300 after 16 hrs by broth microdilution method. The series is classed as functional. The settings on record: ATCC 43300, 16 h.
For series [12], the system named is Staphylococcus aureus. The series can be described thus: Antimicrobial activity against methicillin-resistant Staphylococcus aureus ATCC 700789 after 16 hrs by broth microdilution method. The series is classed as functional. The settings on record: ATCC 700789, 16 h.
The test system of series [13] is Staphylococcus aureus. The series is described as follows: Toxicity in methicillin-resistant Staphylococcus aureus ATCC BAA-44 assessed as inhibition of planktonic cell growth at IC50 after 2 to 24 hrs by spectrophotometry. The series is classed as organism-based.
A further series has as its system Acinetobacter baumannii. The series can be described thus: Antimicrobial activity against multidrug-resistant Acinetobacter baumannii ATCC BAA-1605 after 16 hrs by broth microdilution method. In kind it is functional. To be noted: ATCC BAA-1605, 16 h.
Series [14] deals with Staphylococcus aureus. The series is described as follows: Toxicity in methicillin-resistant Staphylococcus aureus ATCC 43300 assessed as inhibition of planktonic cell growth at IC50 after 2 to 24 hrs by spectrophotometry. The series is classed as organism-based.

SMILES strings stand for the structures. Calls of active or inactive are those of the source. The calls are words filed in the database; no cut-off is given here.

`CCCCCc1ccc(C(=O)Nc2ccc3c(c2)nc(N)n3Cc2ccc(OC)cc2)cc1.Cl`: the result in the series with Staphylococcus aureus [1] was inactive. The IC50 – broadly, the concentration that inhibits the measured activity by half – in the series on Staphylococcus aureus [2] worked out at 11.5 µM; in the series on Staphylococcus aureus [8], 5.7 µM. The MIC (usually the lowest concentration found to suppress growth) was 16 µg/mL in the series on Staphylococcus aureus [3]; 16 µg/mL against Staphylococcus aureus [4]; greater than 64 µg/mL with Staphylococcus aureus [5]; greater than 64 µg/mL against Staphylococcus aureus [6]; 16 µg/mL in the series with Staphylococcus aureus [7]; 16 µg/mL against Staphylococcus aureus [9]. Also, the MIC in the series on Pseudomonas aeruginosa was greater than 64 µg/mL; in the series with Staphylococcus aureus [10], 16 µg/mL; with Staphylococcus aureus [11], 16 µg/mL; in the series on Staphylococcus aureus [12] it was 16 µg/mL; in the series on Acinetobacter baumannii it was greater than 64 µg/mL. In addition, the results for the Activity entry in the series on Staphylococcus aureus [13] and with Staphylococcus aureus [14] were “Toxic” and “Non-toxic”, respectively.
Turning to `CCCCCc1ccc(C(=O)Nc2ccc3c(c2)nc(N)n3C2CCCC2)cc1.Cl`, the result with Staphylococcus aureus [1] was inactive. In addition, the values for the IC50 with Staphylococcus aureus [2] and in the series on Staphylococcus aureus [8] were 4.3 µM and 3.6 µM, respectively. Moreover, the minimal inhibitory concentration (MIC) came to 16 µg/mL with Staphylococcus aureus [3]; 8 µg/mL in the series with Staphylococcus aureus [4]; 8 µg/mL against Staphylococcus aureus [5]; 16 µg/mL in the series with Staphylococcus aureus [6]; 16 µg/mL against Staphylococcus aureus [7]; 8 µg/mL with Staphylococcus aureus [9]. Also, the minimal inhibitory concentration (MIC) against Pseudomonas aeruginosa was greater than 64 µg/mL; against Staphylococcus aureus [10], 8 µg/mL; in the series on Staphylococcus aureus [11] it was 8 µg/mL; with Staphylococcus aureus [12], 16 µg/mL; in the series with Acinetobacter baumannii, greater than 64 µg/mL. Moreover, the Activity entry with Staphylococcus aureus [13] and in the series on Staphylococcus aureus [14] was “Non-toxic” each time.
On to `CCCCCc1ccc(C(=O)Nc2ccc3c(c2)nc(N)n3CCCCc2ccccc2)cc1.Cl`, for which the result in the series on Staphylococcus aureus [1] was inactive. Moreover, the results for the IC50 in the series on Staphylococcus aureus [2] and in the series with Staphylococcus aureus [8] were 14.3 µM and 6.9 µM, respectively. Besides, the MIC against Staphylococcus aureus [3] was 32 µg/mL; against Staphylococcus aureus [4] it was 16 µg/mL; with Staphylococcus aureus [5] it was greater than 64 µg/mL; against Staphylococcus aureus [6] it was 32 µg/mL; in the series on Staphylococcus aureus [7], 32 µg/mL; against Staphylococcus aureus [9], 32 µg/mL. The MIC in the series with Pseudomonas aeruginosa was greater than 64 µg/mL; against Staphylococcus aureus [10], 16 µg/mL; against Staphylococcus aureus [11] it was 32 µg/mL; against Staphylococcus aureus [12] it was 32 µg/mL; in the series on Acinetobacter baumannii, greater than 64 µg/mL. Further, the Activity entry in the series with Staphylococcus aureus [13] and in the series on Staphylococcus aureus [14] was “Toxic” throughout.
Regarding `CCCCCc1ccc(C(=O)Nc2ccc3c(c2)nc(N)n3Cc2ccccc2)cc1.Cl`, the result in the series with Staphylococcus aureus [1] was inactive. The half-inhibitory concentration (IC50) in the series on Staphylococcus aureus [2] was 6.8 µM; in the series with Staphylococcus aureus [8], 5.2 µM. For the same molecule, the MIC in the series with Staphylococcus aureus [3], in the series on Staphylococcus aureus [4], in the series with Staphylococcus aureus [5], against Staphylococcus aureus [6], in the series on Staphylococcus aureus [7] and in the series with Staphylococcus aureus [9] was greater than 64 µg/mL each time. The MIC with Pseudomonas aeruginosa, in the series on Staphylococcus aureus [10], in the series with Staphylococcus aureus [11], against Staphylococcus aureus [12] and in the series on Acinetobacter baumannii was greater than 64 µg/mL each time. Besides, the Activity result in the series with Staphylococcus aureus [13] and in the series with Staphylococcus aureus [14] was “Non-toxic” each time.
As for `CCCCCCCCCCCCn1c(N)nc2cc(NC(=O)c3ccc(CCCCC)cc3)ccc21.Cl`, the outcome with Staphylococcus aureus [1] was inactive. Also, the IC50 in the series on Staphylococcus aureus [2] and in the series with Staphylococcus aureus [8] was greater than 20 µM each time. For the same molecule, the MIC with Staphylococcus aureus [3], against Staphylococcus aureus [4], with Staphylococcus aureus [5], against Staphylococcus aureus [6], against Staphylococcus aureus [7] and in the series with Staphylococcus aureus [9] was greater than 64 µg/mL throughout. Moreover, the MIC against Pseudomonas aeruginosa, with Staphylococcus aureus [10], with Staphylococcus aureus [11], with Staphylococcus aureus [12] and with Acinetobacter baumannii was greater than 64 µg/mL each time.
Turning to `CCCCCc1ccc(C(=O)Nc2ccc3c(c2)nc(N)n3CCc2nc3ccccc3[nH]2)cc1.Cl`, in the series with Staphylococcus aureus [1], the outcome was inactive. Besides, the half-inhibitory concentration (IC50) in the series on Staphylococcus aureus [2] was greater than 20 µM; in the series on Staphylococcus aureus [8] it was 7 µM. Moreover, the MIC with Staphylococcus aureus [3] was greater than 64 µg/mL; against Staphylococcus aureus [4], 64 µg/mL; with Staphylococcus aureus [5], greater than 64 µg/mL; in the series on Staphylococcus aureus [6] it was greater than 64 µg/mL; against Staphylococcus aureus [7], greater than 64 µg/mL; with Staphylococcus aureus [9], greater than 64 µg/mL. The MIC against Pseudomonas aeruginosa was greater than 64 µg/mL; against Staphylococcus aureus [10], 64 µg/mL; in the series on Staphylococcus aureus [11], greater than 64 µg/mL; in the series with Staphylococcus aureus [12], greater than 64 µg/mL; with Acinetobacter baumannii, greater than 64 µg/mL. In the series on Staphylococcus aureus [14], the Activity entry is on record as “Non-toxic”.
Take `CCCCCc1ccc(C(=O)Nc2ccc3c(c2)nc(N)n3CCc2cccc3ccccc23)cc1.Cl`: the outcome in the series on Staphylococcus aureus [1] was inactive. Also, the half-maximal inhibitory concentration (IC50) in the series with Staphylococcus aureus [2] and in the series with Staphylococcus aureus [8] was greater than 20 µM each time. Moreover, the minimal inhibitory concentration (MIC) with Staphylococcus aureus [3], in the series on Staphylococcus aureus [4], in the series on Staphylococcus aureus [5], against Staphylococcus aureus [6], in the series with Staphylococcus aureus [7] and against Staphylococcus aureus [9] was greater than 64 µg/mL in each case. The minimal inhibitory concentration (MIC) was greater than 64 µg/mL against Pseudomonas aeruginosa; 64 µg/mL in the series on Staphylococcus aureus [10]; greater than 64 µg/mL with Staphylococcus aureus [11]; greater than 64 µg/mL against Staphylococcus aureus [12]; greater than 64 µg/mL in the series with Acinetobacter baumannii.
